Laboratory results as given in PMC6015718, “Effect of Polyvalence on the Antibacterial Activity of a Synthetic Peptide Derived from Bovine Lactoferricin against Healthcare-Associated Infectious Pathogens” (BioMed Research International, 2018).
Like-named read-outs stand apart in the source and are kept apart here. Values belong to the compound of their own block, whether it stands above or below them. Positions of bridges follow the written chain, without caps; N, C: chain ends. Non-standard residues stand in square brackets, D forms with d. Residues, ends and D or L forms follow the SMILES beside them. Chains are numbered I, II in the order given. No end group written: not given here. Ahx = NCCCCCC(=O)O

Assays:
Format in all cases: cell-based
[1] = tested on: Staphylococcus aureus ATCC 25923 (sensitive)
Text: (§1) All microorganisms were purchased from the American Type Culture Collection (ATCC). To determine the antibacterial activity of synthetic peptides against HCAI bacteria, the Staphylococcus aureus strains ATCC 25923 and ATCC 33591 were employed as sensitive and resistant strains, respectively, of a Gram-positive microorganisms species, and Klebsiella pneumoniae ATCC 13883 and ATCC 700603 as sensitive and resistant strains of a Gram-negative species.
(§2) The antibacterial activity assay for peptides and controls was performed according to the National Committee for Clinical Laboratory Standards method M7-A7 [11]. MIC and MBC values were determined using a broth microdilution and growth inhibition method with some modification. Briefly, MIC assays were performed by liquid inhibition growth assay in an untreated sterile 96-well flat-bottom tissue culture plate. Bacteria were cultured overnight on Mueller-Hinton agar (MHA). Three colonies were transferred to 8 mL of Mueller-Hinton broth (MHB) and incubated at 37°C until the mid-exponential phase of growth. The turbidity of the cultures was measured and adjusted spectrophotometrically to McFarland standard 0.5, then diluted to a final concentration of […]. Synthetic antibacterial peptide candidate stock solutions were diluted to final concentrations per well of 200, 100, 50, 25, 12.5, and 6.25 μM. […]
(§3) Wells containing MHB with bacterial inoculum only served as bacterial growth controls. Additional controls included MHB alone and MHB with ciprofloxacin (CIP) (2 μg/mL) and bacteria as a positive control. The microplate was incubated for 24 h at 37°C, and growth inhibition was examined by monitoring the optical density at 620 nm (OD620). MIC was defined as the lowest peptide concentration that inhibited bacteria growth >90%.

[2] = tested on: Klebsiella pneumoniae ATCC 700603 (resistant)
Text: as §1
(§4) To determine the MBC, an aliquot from each well of the MIC assay was spread onto MHA. After 18 h at 37°C, the concentration that inhibited bacterial growth was determined. Each of these tests was performed four times. MBC was defined as the lowest concentration of peptide that reduced the number of bacteria by 99.9% in vitro [12].

[3] = tested on: Staphylococcus aureus ATCC 33591 (resistant)
Text: as §1, §4

[4] = tested on: Klebsiella pneumoniae ATCC 13883 (sensitive)
Text: as §1, §4

[5] = tested on: Staphylococcus aureus ATCC 25923 (sensitive); remark: listed apart in the source
Text: as §1, §4

[6] = tested on: Klebsiella pneumoniae ATCC 700603 (resistant); remark: listed apart in the source
Text: as §1, §2, §3

[7] = tested on: Staphylococcus aureus ATCC 33591 (resistant); remark: listed apart in the source
Text: as §1, §2, §3

[8] = tested on: Klebsiella pneumoniae ATCC 13883 (sensitive); remark: listed apart in the source
Text: as §1, §2, §3

human erythrocytes = assay: Haemolytic activity; conditions: 6.25-100 μM peptide; human erythrocytes 2% haematocrit in PBS, 2 h 37°C, OD492; n = 2
Description: Human erythrocytes collected from the blood samples of healthy humans were harvested by centrifugation for 7 min at 162 ×g and washed three times in phosphate-buffered saline (PBS). The erythrocytes (2% haematocrit in PBS) were incubated with peptide molecules at several concentrations (6.25, 12.5, 25, 50, and 100 μM), for 2 h at 37°C. PBS was used as a negative control, and sterile distilled water was used as a positive control for haemolysis (100% of haemolysis). The plate was subsequently centrifuged at 1459 ×g for 10 min at 4°C. Aliquots of the supernatants of each well (75 μL) were carefully transferred to a new sterile 96-well plate, and haemolytic activity was evaluated by measuring the OD492 using an Asys Expert Plus Microplate reader. The experiments were performed in duplicate, and peptide haemolysis activity was calculated.
Lastly, to evaluate the effects of the peptides on normal human erythrocytes, their haemolysis activity was investigated (Figure 6). The percentage of haemolytic activity on human red blood cells after 2 hours was determined via the standard microtitre dilution method. The peptide concentration is reported as μM.

MIC ([1]; ATCC 25923, 24 h): > 200 µM
Compound: CSCC[C@H](NC(=O)[C@H](CCCNC(=N)N)NC(=O)[C@H](Cc1c[nH]c2ccccc12)NC(=O)[C@H](CCC(N)=O)NC(=O)[C@H](Cc1c[nH]c2ccccc12)NC(=O)[C@H](CCCNC(=N)N)NC(=O)[C@H](CCCNC(=N)N)NC(=O)[C@H](CS)NC(=O)[C@H](CCCCN)NC(=O)[C@@H](N)Cc1ccccc1)C(=O)N[C@@H](CCCCN)C(=O)N[C@@H](CCCCN)C(=O)N[C@@H](CC(C)C)C(=O)NCC(=O)N[C@@H](C)C(N)=O [LfcinB reference, reference compound]
MBC ([2]; ATCC 700603, 18 h): > 200 µM
MBC ([3]; ATCC 33591, 18 h): 100 µM
MBC ([4]; ATCC 13883, 18 h): > 200 µM
MBC ([5]; ATCC 25923, 18 h): > 200 µM

MIC ([6]; ATCC 700603, 24 h): 12.5 µM
MIC ([6]; K. pneumoniae ATCC 700603 resistant, MHB, 24 h 37°C, OD620, >90% inhibition, average of four independent experiments in duplicate): 57 µg/mL
MIC ([6]; K. pneumoniae ATCC 700603 resistant, MHB, 24 h 37°C, OD620, >90% inhibition, average of four independent experiments in duplicate, listed as tetrameric): ≥ 57 µg/mL
MIC ([6]; K. pneumoniae ATCC 700603 resistant, value in parentheses, MHB, 24 h 37°C, OD620, >90% inhibition): ≥ 12,5 µM
MIC ([7]; ATCC 33591, 24 h): 12.5 µM
MIC ([7]; S. aureus ATCC 33591 resistant, MHB, 24 h 37°C, OD620, >90% inhibition, average of four independent experiments in duplicate): 57 µg/mL
MIC ([7]; S. aureus ATCC 33591 resistant, MHB, 24 h 37°C, OD620, >90% inhibition, average of four independent experiments in duplicate, listed as tetrameric): ≥ 57 µg/mL
MIC ([7]; S. aureus ATCC 33591 resistant, value in parentheses, MHB, 24 h 37°C, OD620, >90% inhibition): ≥ 12.5 µM
MIC ([8]; ATCC 13883, 24 h): 6.25 µM
MIC ([8]; K. pneumoniae ATCC 13883 sensitive, MHB, 24 h 37°C, OD620, >90% inhibition, average of four independent experiments in duplicate): 29 µg/mL
MIC ([8]; K. pneumoniae ATCC 13883 sensitive, MHB, 24 h 37°C, OD620, >90% inhibition, average of four independent experiments in duplicate, listed as tetrameric): ≥ 29 µg/mL
MIC ([8]; K. pneumoniae ATCC 13883 sensitive, value in parentheses, MHB, 24 h 37°C, OD620, >90% inhibition): ≥ 6,25 µM
MIC ([1]; ATCC 25923, 24 h): 6.25 µM
MIC ([1]; S. aureus ATCC 25923 sensitive, MHB, 24 h 37°C, OD620, lowest concentration inhibiting growth >90%, average of four independent experiments in duplicate): 29 µg/mL
MIC ([1]; S. aureus ATCC 25923 sensitive, MHB, 24 h 37°C, OD620, lowest concentration inhibiting growth >90%, average of four independent experiments in duplicate, listed as tetrameric): ≥ 29 µg/mL
MIC ([1]; S. aureus ATCC 25923 sensitive, value in parentheses, MHB, 24 h 37°C, OD620, >90% inhibition, average of four independent experiments in duplicate): ≥ 6.25 µM
Compound: N=C(N)NCCC[C@H](NC(=O)[C@H](Cc1c[nH]c2ccccc12)NC(=O)[C@H](CCC(N)=O)NC(=O)[C@H](Cc1c[nH]c2ccccc12)NC(=O)[C@H](CCCNC(=N)N)NC(=O)[C@@H](N)CCCNC(=N)N)C(=O)NCCCC[C@H](NC(=O)[C@H](CCCNC(=N)N)NC(=O)[C@H](Cc1c[nH]c2ccccc12)NC(=O)[C@H](CCC(N)=O)NC(=O)[C@H](Cc1c[nH]c2ccccc12)NC(=O)[C@H](CCCNC(=N)N)NC(=O)[C@@H](N)CCCNC(=N)N)C(=O)NCCCCCC(=O)N[C@@H](CSSC[C@H](NC(=O)CCCCCNC(=O)[C@H](CCCCNC(=O)[C@H](CCCNC(=N)N)NC(=O)[C@H](Cc1c[nH]c2ccccc12)NC(=O)[C@H](CCC(N)=O)NC(=O)[C@H](Cc1c[nH]c2ccccc12)NC(=O)[C@H](CCCNC(=N)N)NC(=O)[C@@H](N)CCCNC(=N)N)NC(=O)[C@H](CCCNC(=N)N)NC(=O)[C@H](Cc1c[nH]c2ccccc12)NC(=O)[C@H](CCC(N)=O)NC(=O)[C@H](Cc1c[nH]c2ccccc12)NC(=O)[C@H](CCCNC(=N)N)NC(=O)[C@@H](N)CCCNC(=N)N)C(N)=O)C(N)=O [Tetrameric] (I: H-RRWQWRK[Ahx]C-NH2 / II: H-RRWQWRK[Ahx]C-NH2 / III: H-RRWQWR / IV: H-RRWQWR; amide I:7-III:C, II:7-IV:C; disulfide I:9-II:9)
concentration at which antibacterial activity was displayed (dose-response profile) ([1]; S. aureus sensitive strain, Figure 2): ≥ 29 µg/mL
MBC ([2]; ATCC 700603, 18 h): 25 µM
MBC ([2]; K. pneumoniae ATCC 700603 resistant, MHA, 18 h 37°C, 99.9% reduction): 115 µg/mL
MBC ([2]; K. pneumoniae ATCC 700603 resistant, MHA, 18 h 37°C, 99.9% reduction, listed as tetrameric): ≥ 115 µg/mL
MBC ([2]; K. pneumoniae ATCC 700603 resistant, value in parentheses, MHA, 18 h 37°C, 99.9% reduction): ≥ 25 µM
MBC as a function of the MBC of the tetrameric peptide ([2]; K. pneumoniae resistant strain, from concentrations in μg/mL): 1 x MBC
MBC ([3]; ATCC 33591, 18 h): 12.5 µM
MBC ([3]; S. aureus ATCC 33591 resistant, MHA, 18 h 37°C, 99.9% reduction): 57 µg/mL
MBC ([3]; S. aureus ATCC 33591 resistant, MHA, 18 h 37°C, 99.9% reduction, listed as tetrameric): ≥ 57 µg/mL
MBC ([3]; S. aureus ATCC 33591 resistant, value in parentheses, MHA, 18 h 37°C, 99.9% reduction): ≥ 12.5 µM
MBC as a function of the MBC of the tetrameric peptide ([3]; S. aureus resistant strain, from concentrations in μg/mL): 1 x MBC
MBC ([4]; ATCC 13883, 18 h): 25 µM
MBC ([4]; K. pneumoniae ATCC 13883 sensitive, MHA, 18 h 37°C, 99.9% reduction): 115 µg/mL
MBC ([4]; K. pneumoniae ATCC 13883 sensitive, MHA, 18 h 37°C, 99.9% reduction, listed as tetrameric): ≥ 115 µg/mL
MBC ([4]; K. pneumoniae ATCC 13883 sensitive, value in parentheses, MHA, 18 h 37°C, 99.9% reduction): ≥ 25 µM
MBC as a function of the MBC of the tetrameric peptide ([4]; K. pneumoniae sensitive strain, from concentrations in μg/mL): 1 x MBC
MBC ([5]; ATCC 25923, 18 h): 12.5 µM
MBC ([5]; S. aureus ATCC 25923 sensitive, MHA, 18 h 37°C, 99.9% reduction, average of four independent experiments): 57 µg/mL
MBC ([5]; S. aureus ATCC 25923 sensitive, MHA, 18 h 37°C, 99.9% reduction, average of four independent experiments, listed as tetrameric): ≥ 57 µg/mL
MBC ([5]; S. aureus ATCC 25923 sensitive, value in parentheses, MHA, 18 h 37°C, 99.9% reduction): ≥ 12.5 µM
MBC as a function of the MBC of the tetrameric peptide ([5]; S. aureus sensitive strain, from concentrations in μg/mL): 1 x MBC

Compound: RRWQWR-NH2 [Motif]
MBC ([2]; ATCC 700603, 18 h): > 200 µM
MBC ([4]; ATCC 13883, 18 h): > 200 µM
MBC ([5]; ATCC 25923, 18 h): > 200 µM
haemolysis activity over the concentrations tested (human erythrocytes): no haemolysis activity

MIC ([6]; ATCC 700603, 24 h): 50 µM
MIC ([7]; ATCC 33591, 24 h): 6.25 µM
MIC ([8]; ATCC 13883, 24 h): 50 µM
MIC ([1]; ATCC 25923, 24 h): 50 µM
Compound: RWQWRWQWR [Palindromic]
MBC ([2]; ATCC 700603, 18 h): 100 µM
MBC ([3]; ATCC 33591, 18 h): 50 µM
MBC ([4]; ATCC 13883, 18 h): 100 µM
MBC ([5]; ATCC 25923, 18 h): 100 µM
